We go through one molecule from patent publication US4732909A, “3-(3-halophenyl-3,4-diazatetracyclo-[6.3.1.1^6,10.0^1,5 ]tridec-4-en-2-one compounds and use thereof to treat hypoxia” (Pennwalt Corporation, priority 1987, dated 1988).

The structures appear in SMILES notation.

For one data set, the system named is mice. Nature of the data set: antihypoxia test: survival duration of mice in normobaric atmosphere of 96% nitrogen and 4% oxygen. The class given is in vivo. From the text: The antihypoxia test measures the survival duration of mice in a normobaric atmosphere consisting of 96% nitrogen and 4% oxygen, at ambient temperature. The mice are considered dead when they stop visible aspiration. The test indicates potential clinical utility in situations of central nervous system hypoxia, such as occurs following stroke, cardiac arrest, and traumatic accidents.

A further data set in a line: Estimated LD50. The class given is in vivo. The note with it: ip.
A further data set can be described thus: in vivo. The settings on record: ip.

With `O=C1N(c2cccc(Cl)c2)N=C2C3CC4CC(C3)CC12C4` [3-(3-Chlorophenyl)-3,4-diazatetracyclo[6.3.1.1^6,10.0^1,5]tridec-4-en-2-one], the “Antihypoxia, Survial Minutes, Compound” value turned out to be 8.0 min with mice (2.5 mg/kg ip, N=10, ambient temp., control 8.7, P NS (P > 0.05)); 10.5 min with mice (5 mg/kg ip, N=10, ambient temp., control 8.7, P <0.05); 9.5 min in the data set on mice (10 mg/kg ip, N=10, ambient temp., control 6.9, P <0.05); 13.0 min in the data set on mice (25 mg/kg ip, N=5, ambient temp., control 8.7, P 0.075); 12.6 min in the data set with mice (25 mg/kg ip, N=10, ambient temp., control 6.9, P <0.05). Also, the “prolongation of survival of mice (in words)” value in the data set on mice (25 mg/kg, intraperitoneally) was “prolonged the survival of mice by a very significant margin”. For the same molecule, the “Estimated LD50” value in the data set “Estimated LD50” is listed as above 100 mg/kg. In addition, the TD50 in the data set “in vivo” is 25 mg/kg.
